According to EP0258175A2, “5-hetero- or aryl-substituted-imidazo[2,1-a]isoquinolines” (SANDOZ AG, priority 1986, dated 1988):
Counter-ions that a name gives are not always drawn.

How the values were obtained:
Meth A sarcoma cells = assay: Meth A fibrosarcoma implant in mice (Test F): tumor growth and survivors; assay type: in vivo; conditions: 50µg per day p.o. for 28 days, ten CBF₁ mice implanted with 7.3 x 10⁶ Meth A sarcoma cells
Description: Test F) Meth A fibrosarcoma cells were induced in BALB/C mice by administering methylcholanthrene according to the procedure of Old, et al. (L.J. Old, E.A. Boyse, D.A. Clarke, and E. Carswell, Ann. N.Y. Acad. Sci., 101, 80 (1962). These tumor cells were harvested from the peritoneal cavity 10 to 12 days after administration of methylcholanthrene. Ten CBF₁ mice of 10-12 week age were each implanted with 7.3 x 10⁶ Meth A sarcoma cells to serve as control. A second group of ten CBF₁ mice were each implanted with 7.3 x 10⁶ Meth A sarcoma cells and on day one after implant each mouse was treated p.o. with 5-50µg of the test compound per day for a total of twenty or twenty-seven days. Tumor growth and survivors were assayed on days 7, 14, 21 and 28 after tumor implantation.

[1] = test system: PAF-mediated extravasation; assay: PAF-induced Extravasation test (Test C), hemoconcentration (hematocrit); assay type: in vivo; conditions: Cavia porcellus, po, guinea pigs, PAF 100 ng/kg i.v., inhibition of increase in hematocrit, read-out: ED₅₀
Procedure: Still further, the compounds of formula I are indicated for use as inhibitors of PAF-mediated extravasation (the extrusion of plasma from the lumen of the blood vessels into the vessel wall and surrounding tissues) measured as a function of hemoconcentration according to the PAF-induced Extravasation test(Test C) as follows: Male guinea pigs, weighing between 300 and 400 g, are anesthetized, after which time a femoral catheter is inserted. The test compound is administered either orally or parenterally one hour up to 4 hours prior to the introduction of PAF. The PAF (C₁₈-Sandoz, Hanover) is dissolved in Tris-Tyrode's bovine serum albumin buffer and administered intravenously (jugular) at 100 ng/kg. […] The tubes are then centrifuged and the percent of packed red blood cells (hematocrit) is measured (PAF induces a maximal increase in hematocrit at 5 to 7 minutes subsequent to the injection of PAF). The percent increase in hematocrit over the value prior to the injection of PAF is calculated. The hemacrotit values obtained with the test compound are compared to the hemoconcentration values obtained with PAF alone and are expressed as percent inhibition of percent increase in hematocrit.

[2] = biological target: T1, Human Platelet PAF Receptor (Homo sapiens, UniProt P25105); assay: Human Platelet PAF Receptor Assay test (Test A): inhibition of specific binding of [³H]-PAF to platelets; conditions: inhibition of specific binding of [³H]-PAF to human platelets, read-out: IC₅₀
T1 construct: from tissue; host or cells: washed human platelets from donor blood
Procedure: The compounds of formula I are indicated for use as platelet activating factor receptor antagonists as indicated by their ability to inhibit specific binding of [³H]-PAF to platelets according to the Human Platelet PAF Receptor Assay test (Test A) as follows: Human blood is obtained by venipuncture of healthy, human donors into an anti-coagulant mixture containing 3.15% of trisodium citrate and 20 µg/ml of Prostaglandin I₂ (PGI₂) in a ratio of blood to anti-coagulant of 9:1. Platelet rich plasma (PRP) is prepared by centrifugation (250 x g) of the blood for 20 minutes at room temperature. […] All of the tests are conducted in duplicate and each of the test compounds is evaluated at concentrations of 100, 50, 1 and 0.1 µM. […] An additional 2 ml of Scintiverse II is then added to the vials and, after mixing, the vials are counted for 1 minute in a liquid scintillation spectrometer. The amount of specific binding is calculated as the difference in cpm between the total bound [³H]-PAF and non-specifically bound [³H]-PAF. The percent inhibition of specific binding is determined by dividing the cpm specifically bound in the presence of the test compound by the cpm specifically bound in total, multiplying by 100 and then subtracting from 100. […]

[3] = test system: PAF-mediated bronchoconstriction; assay: PAF-induced Pulmonary Inflation Pressure (PIP) Increase test (Test B); assay type: in vivo; conditions: Cavia porcellus, po, guinea pigs, PAF 100 ng/kg i.v., maximal PIP increase, read-out: ED₅₀
Procedure: Furthermore, in view of their potential as PAF receptor antagonists, the compounds of formula I are indicated for use as inhibitors of PAF-mediated bronch oconstriction, which property was evaluated by the PAF-induced Pulmonary Inflation Pressure (PIP) Increase test (Test B) as follows:
Male guinea pigs, weighing between 300 and 400 g, are anesthetized, after which time trachea tube, carotid and jugular cathers are inserted. The test animal is then force ventilated employing a small animal Harvard respirator and the resistance to lung inflation (PIP) is measured utilizing a pressure transducer and recorder. The test compound is administered either orally at 30 minutes up to 4 hours prior to or parenterally e.g. intravenously (jugular) etc. at 5 minutes up to 4 hours prior to the introduction of PAF. […] Any blood pressure measurements taken are recorded from a transducer attached to the carotid catheter. […] A reading at 15 minutes after the administration of PAF is termed the endpoint PIP. The effect of the test compound on the PIP response is determined by the difference between the percent increase in maximal PIP over baseline for the test animal to which has been administered PAF and the test compound compared to the test animal to which only PAF has been administered.

Abelson 8.1 tumor cells [4] = assay: Tumor cell cytotoxicity Test (TCCT) (Test D), alkaline phosphatase readout; assay type: cell-based; conditions: at 5µg
Procedure: Test D) Tumor cell cytotoxicity Test (TCCT).
In flat bottom microtiter plates (Nunc Roskieide, Denmark) were placed Abelson 8.1 tumor cells in DMEM + 10% fetal calf serum and the tumor cell-containing plates were incubated with 1,3, and 5µg of the test compound for a period of 6 to 72 hours. The number of viable tumor cells present was determined by measuring the alkaline phosphatase in the following manner. The tumor cell plates were centrifuged (500 x g.) for ten minutes and the supernatant flicked off. Without further washing, 100 ul of buffer containing 20 ul of diethanolamine, 2uM of MgCl₂ · 6H₂O, 2.5 uM of p-nitrophenylphosphate and 10 mg Triton X-100 were added. The samples were incubated for 60 minutes at room temperature and the enzymatic reaction was terminated by the addition of 100 ul of 0.5N NaOH. The absorbance was then measured at […] using a Titertek Multiskan apparatus.

Abelson 8.1 tumor cells [5] = assay: Influence on Cytotoxicity of ET-18-OCH₃ test (IC-ET test) (Test E); assay type: cell-based, mice; conditions: at 5 µg, macrophages pre-incubated with 10µg ET-18-OCH₃, values recorded after 72 hours, ET-18-OCH₃ alone set at 100%
Procedure: Test E) Influence on Cytotoxicity of ET-18-OCH₃ test (IC-ET test).
Bone marrow cell macrophages (10⁵/well)obtained from [BALB/CX57/BL₆]Fl mice were incubated with 10µg of 1-octadecyl-2-methoxy-3-phosphoryl choline (ET-18-OCH₃) for 24 hours in flat bottom microtiter plates (Nunc Roskieide,Denmark), after which time they are centrifuged and washed once. Abelson 8.1 tumor cells in DMEM + 10% fetal calf serum and 1,3 and 5ug of the test compound were then added to the plates. With the cytotoxicity of ET-18-OCH₃ (10ug) alone set at 100%, the inhibition or enhancement of the cytotoxic effect, as measured by an alkaline phosphatase assay, was determined and values recorded after 72 hours for 1,3 and 5ug of the test substance.

T1 sequence (P25105 whole entry): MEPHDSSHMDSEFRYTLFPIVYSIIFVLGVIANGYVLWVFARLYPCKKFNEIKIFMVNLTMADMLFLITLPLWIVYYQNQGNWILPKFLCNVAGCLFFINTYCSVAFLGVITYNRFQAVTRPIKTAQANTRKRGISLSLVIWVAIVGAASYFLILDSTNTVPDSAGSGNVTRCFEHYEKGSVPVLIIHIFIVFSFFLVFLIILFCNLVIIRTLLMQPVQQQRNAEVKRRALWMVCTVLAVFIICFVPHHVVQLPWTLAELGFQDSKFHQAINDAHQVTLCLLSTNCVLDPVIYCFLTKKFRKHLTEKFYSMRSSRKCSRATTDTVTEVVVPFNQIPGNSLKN

**Q.** Which Tumor growth (Meth A sarcoma cells) does the source give for `C1=C(c2ccc(CN3CCCCC3)cc2)N2CCN=C2c2ccccc21.Cl.Cl` [Example 3N, 5-(4ʹ-piperidinomethylphenyl)-2,3-dihydroimidazo[2,1-a]isoquinoline dihydrochloride] here?
**A.** no evidence of the presence of any tumors

**Q.** What about the survivors (Meth A sarcoma cells; none of the control group survived) of the same compound?
**A.** all of the animals

**Q.** What does the source list for `COc1cc(CCc2ccc(C3=Cc4ccccc4C4=NCCN34)cc2)cc(OC)c1OC.Cl` [Example 7E, 5-[4ʹ-(3,4,5-trimethoxyphenylethyl)phenyl]-2,3-dihydroimidazo [2,1-a]isoquinoline hydrochloride]?
**A.** ED50 [1]: 4.2 mg/kg; IC50 [2]: 60 nM; ED50 [3]: 5 mg/kg

**Q.** What does the source list for `C=CCN(CC=C)Cc1ccc(C2=Cc3ccccc3C3=NCCN23)cc1` [Example 3BB, 5-(4ʹ-diallylaminomethylphena]isoquinoline dihydrochloride]?
**A.** inh. (Abelson 8.1 tumor cells [4]): 99%; inh. (Abelson 8.1 tumor cells [5]): 97%
